Reference: patent publication US8106168B2, “Metalloproteinase binding proteins” (Dyax Corp., priority 2005, dated 2012)

What was measured:
B16F1 melanoma tumors = assay: B16F1 melanoma subcutaneous tumor growth; assay type: in vivo, mouse; conditions: M0038-F01 10, 1 or 0.1 mg/kg Q2d IP; doxorubicin 5 mg/kg weekly IP
Text: B16F1 melanoma cells were implanted into Female C57/BL6 (CR) mice (4-6 Weeks old) mice by subcutaneous injection.

MDA-MB-231-GFP tumors = assay: MDA-MB-231-GFP orthotopic breast tumor growth and metastasis
Description: Human breast cancer cells MDA-MB-231 cells transfected with green fluorescent protein (MDA-MB-231-GFP) were inoculated into the mammary fat pad of female BALB/c nu/nu mice with Matrigel. Animals were monitored for tumor growth, and at week 4-5 post tumor cell inoculation, animals with tumors of 30-50 mm^3 were selected, randomized and divided into experimental groups. […] Tumor volume was measured weekly, starting at week 5. Additionally, tissue samples of lung, liver, and spleen were taken to assess metastasis.
Animals were inoculated with MDA-MB-231-GFP cells as described above, then selected and randomized, and divided into experimental groups of 8 animals each. […] Tumor volume was measured weekly, starting at week 5.
Tumor tissue samples were collected on day 35 post-treatment for immunohistochemical analysis. Paraffin-embedded tissue samples were sectioned, stained with CD31 (Santa Cruz Biotechnology Inc., Santa Cruz, Calif., USA), Ki-67 (DAKO, Carpinteria, Calif., USA), MAPK, FAK, phosphoMAPK or phosphoFAK antibodies, visualized with biotinylated secondary antibodies using a VECTASTAIN® ABC (Vector Laboratories Inc., Burlingame, Calif., USA), and lightly counterstained with haemotoxylin.

[1] = test system: activation of pro-MMP-2 by MMP-14 in PMA-activated HT-1080 cells; assay: Gelatin zymogram, pro-MMP-2 activation in HT-1080 cells; assay type: cell-based, human; conditions: gelatin zymography of conditioned media after 3 days; antibodies 10 μg/ml, GM6001 10 μM
Description: The ability of anti-MMP-14 IgGs to inhibit the activation of pro-MMP-2 by MMP-14 was examined by gelatin zymogram experiments performed with PMA-activated HT-1080 cells. M0033-H07 and M0038-F01 were tested for their ability to inhibit MMP-14 in this assay. HT1080 cells (well-known to express MMP-14 and MMP-2) were seeded at 5×10^5 cells/well at Day 0. […] HT-1080 cells cultured in the presence of 20 ng/ml of PMA were used as a positive control.
After 3 days of incubation, conditioned media were collected and gelatinolytic activities were analyzed by gelatin zymography as described previously (Maquoi et al, J Biol Chem 2000; 275:11368-78). When HT-1080 cells are activated with a phorbol ester, pro-MMP-2 is activated into MMP-2 (lane 1).

PC3 prostate tumors = assay: PC3 prostate tumor growth; assay type: in vivo, mouse; conditions: M0038-F01 10, 1 or 0.1 mg/kg Q2d IP; taxotere 10 mg/kg weekly IP; A2 10 mg/kg Q2d
Text: PC3 prostate cancer cells were implanted into male nude mice by subcutaneous injection.

MDA-MB-435 GFP tumors = assay: MDA-MB-435 GFP orthotopic breast tumor growth; assay type: in vivo, mouse
Text: Fragments of MDA-MB-435 GFP (MDA-MB-435 cells expressing green fluorescent protein) tumors were transplanted by surgical orthotopic implantation (SOI) into the right second mammary gland. Treatment was started on day 15 after SOI when the volume of primary tumors reached about 85 mm^3.
Mice were sacrificed at day 61 after the start of the treatment and tumors (primary and metastases) were identified by fluorescent imaging. Additionally, primary tumors were excised and weighed. […] However, M0038-F01 was not effective in reducing lymph node or lung metastases in this experiment.

[2] = immunostaining of tumor tissue, day 35
[3] = immunostaining of tumor tissue, day 35 post-treatment, image analysis

Q: With `COc1cccc2c1C(=O)c1c(O)c3c(c(O)c1C2=O)C[C@@](O)(C(=O)CO)C[C@@H]3O[C@H]1C[C@H](N)[C@H](O)[C@H](C)O1` [DOX, doxorubicin] as the compound, how does the tumor growth (B16F1 melanoma tumors) read?
A: effective in reducing tumor growth

Q: And the metastases to spleen (MDA-MB-231-GFP tumors; M0038-F01 10 mg/kg Q2d IP, DOX 5 mg/kg weekly IP)?
A: reduced in DOX and M0038-F01 treated animals, but the difference was not statistically significant

Q: What about the “lung and liver metastases” value (MDA-MB-231-GFP tumors; M0038-F01 10 mg/kg Q2d IP, DOX 5 mg/kg weekly IP, compared to controls) of the same compound?
A: statistically significant reduction

Q: What about the “tumor growth (tumor volume)” value (MDA-MB-231-GFP tumors; M0038-F01 or A2 10 mg/kg Q2d IP, DOX 5 mg/kg weekly IP, five weeks) of the same compound?
A: substantially inhibited

Q: What about the “CD31 and KI67 levels compared to vehicle and A2 controls” value (MDA-MB-231-GFP tumors; [2]) of the same compound?
A: slightly reduced

Q: What about the phospho-FAK level (MDA-MB-231-GFP tumors; [2]) of the same compound?
A: 4±1.2 A.U.

Q: What about the phospho-MAP kinase level (MDA-MB-231-GFP tumors; [2]) of the same compound?
A: 5.8±1.9 A.U.

Q: What about the “total FAK level” value (MDA-MB-231-GFP tumors; [2]) of the same compound?
A: 6±1 A.U.

Q: What about the “total MAP kinase level” value (MDA-MB-231-GFP tumors; [2]) of the same compound?
A: 5.8±1.9 A.U.

Q: What about the CD31 (MDA-MB-231-GFP tumors; [3]) of the same compound?
A: 4.08 ± 1.28

Q: What about the Ki67 (MDA-MB-231-GFP tumors; [3]) of the same compound?
A: 5.2 ± 0.84

Q: What does the source list for `CNC(=O)[C@H](Cc1c[nH]c2ccccc12)NC(=O)[C@@H](CC(=O)NO)CC(C)C` [GM6001, reference compound]?
A: pro-MMP-2 activation by MMP-14 [1]: completely abolished; pro-MMP-9 expression [1]: paradoxically stimulated

Q: `CC(=O)O[C@@]12CO[C@@H]1C[C@H](O)[C@@]1(C)C(=O)[C@H](O)C3=C(C)[C@@H](OC(=O)[C@H](O)[C@@H](NC(=O)OC(C)(C)C)c4ccccc4)C[C@@](O)([C@@H](OC(=O)c4ccccc4)[C@H]21)C3(C)C` [Taxotere, taxotere, reference compound] was tested. Which “tumor growth (tumor volume)” value (PC3 prostate tumors) did it give?
A: extremely effective

Q: And the “Tumor Mass (±SD)” value (MDA-MB-435 GFP tumors; 10 mg/kg (F01 and A2 Q2d IP; taxotere QW×3 i.v.), excised primary tumor, day 61, * p≦0.05 compared to Control)?
A: 0.59 ± 0.59*

Q: What about the tumor volume (MDA-MB-435 GFP tumors; M0038-F01 1 or 10 mg/kg Q2d IP, taxotere 10 mg/kg QW×3 i.v.) of the same compound?
A: reduction of tumor volume
